# Reference: patent publication US20220400680A1, “USE OF ACYLCYANAMIDES OR SALTS THEREOF FOR REGULATING PLANT GROWTH” (Alzchem Trostberg GmbH, priority 2019, published 2022)
# Key:
# [1] = tested on: Grape, type Pinot Noir (C4); experiment: Greenhouse test, cut wine sprouts C4 dipped in test solution, bud development stage; assay type: in vivo, Vitis vinifera subsp. vinifera; parameters: key to Bud development stage, wine sprouts C4: Stage 0: Buds unchanged; Stage 1: Buds slightly swollen, first green tips visible; Stage 2: strongly swollen, green buds; Stage 3: Buds before breaking open, leaf or flower root already visible; Stage 4: Flower buds fully developed, but still closed, white petals already visible. In the case of the grapevine, stage 4 was the unfolding of the first leaves; Stage 5: Flowers fully open or, in the case of grapevine, unfolding of the flower roots (“Gescheine”) on the fully leafed sprouts
# Outline: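 Cut Pinot Noir grapevine sprouts were dipped in aqueous test solution (0.15 mol test substance, or 0.075 mol for bis-cyanamides, plus 0.15 g BreakThru OE-446 per 500 g total) and kept in water jars at about 22° C under natural light. Bud development was scored on a staged scale from closed buds to fully open flowers.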
# [2] = tested on: Table apple, type Boiken apple (C1); experiment: Greenhouse test, cut apple branches C1 dipped in test solution, bud development stage; assay type: in vivo, Malus domestica; parameters: key to Bud development stage, apple branches C1: Stage 0: Buds unchanged; Stage 1: Buds slightly swollen, first green tips visible; Stage 2: strongly swollen, green buds; Stage 3: Buds before breaking open, leaf or flower root already visible; Stage 4: Flower buds fully developed, but still closed, white petals already visible. In the case of the grapevine, stage 4 was the unfolding of the first leaves; Stage 5: Flowers fully open or, in the case of grapevine, unfolding of the flower roots (“Gescheine”) on the fully leafed sprouts; conditions: for Good to very good dormancy-breaking effect, apple C1: stage 4 reached or exceeded after 27 days vs negative control; for Dormancy-breaking effect according to the definition, apple C1: stage 4 reached or exceeded after 36 days vs negative control
# Outline: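 Cut Boiken apple branches kept in water jars in a greenhouse at about 22 °C under natural light and dipped in test solution. Solutions contained 0.15 mol test substance (0.075 mol for bis-cyanamides) plus 0.15 g BreakThru OE-446 per 500 g water. Bud development scored on a stage scale up to full flowering.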
# [3] = tested on: Table apple, type Zabergäu-Renette (C2); experiment: Greenhouse test, cut apple branches C2 dipped in test solution, bud development stage; assay type: in vivo, Malus domestica; parameters: key to Bud development stage, apple branches C2: Stage 0: Buds unchanged; Stage 1: Buds slightly swollen, first green tips visible; Stage 2: strongly swollen, green buds; Stage 3: Buds before breaking open, leaf or flower root already visible; Stage 4: Flower buds fully developed, but still closed, white petals already visible. In the case of the grapevine, stage 4 was the unfolding of the first leaves; Stage 5: Flowers fully open or, in the case of grapevine, unfolding of the flower roots (“Gescheine”) on the fully leafed sprouts
# Outline: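 Cut branches held in water jars in a greenhouse at about 22° C. under natural light after dipping in aqueous test solution: 0.15 mol substance (0.075 mol for bis-cyanamides) plus 0.15 g BreakThru OE-446 per 500 g. Bud development scored on a stage scale from closed buds to fully open flowers.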
# [4] = tested on: Table cherry, type Burlat (C3); experiment: Greenhouse test, cut cherry branches C3 dipped in test solution, bud development stage; assay type: in vivo, Prunus avium; parameters: key to Bud development stage, cherry branches C3: Stage 0: Buds unchanged; Stage 1: Buds slightly swollen, first green tips visible; Stage 2: strongly swollen, green buds; Stage 3: Buds before breaking open, leaf or flower root already visible; Stage 4: Flower buds fully developed, but still closed, white petals already visible. In the case of the grapevine, stage 4 was the unfolding of the first leaves; Stage 5: Flowers fully open or, in the case of grapevine, unfolding of the flower roots (“Gescheine”) on the fully leafed sprouts
# Outline: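 Cut branches kept in water jars in a greenhouse at about 22° C. under natural light after dipping in aqueous solution of 0.15 mol test substance (0.075 mol for bis-cyanamides) plus 0.15 g BreakThru OE-446 per 500 g. Bud development scored on a stage scale from closed buds to fully open flowers.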
# [5] = T1 (14 d), 0.15 mol (A-14, A-15: 0.075 mol) per 500 g solution
# [6] = stage 4 reached or exceeded after 36 days vs negative control
Structure (SMILES),"Bud development stage, wine sprouts C4 [1, 5]","Bud development stage, wine sprouts C4 ([1]; T2 (16 d))","Bud development stage, wine sprouts C4 ([1]; T3 (21 d))","Bud development stage, wine sprouts C4 ([1]; T4 (27 d))","Bud development stage, wine sprouts C4 ([1]; T5 (36 d))","Bud development stage, wine sprouts C4 ([1]; T6 (56 d))",melting point,"Bud development stage, apple branches C1 [2, 5]","Bud development stage, apple branches C1 ([2]; T2 (16 d))","Bud development stage, apple branches C1 ([2]; T3 (21 d))","Bud development stage, apple branches C1 ([2]; T4 (27 d))","Bud development stage, apple branches C1 ([2]; T5 (36 d))","Bud development stage, apple branches C1 ([2]; T6 (56 d))","Dormancy-breaking effect according to the definition, apple C1 [2]","Bud development stage, apple branches C2 [3, 5]","Bud development stage, apple branches C2 ([3]; T2 (16 d))","Bud development stage, apple branches C2 ([3]; T3 (21 d))","Bud development stage, apple branches C2 ([3]; T4 (27 d))","Bud development stage, apple branches C2 ([3]; T5 (36 d))","Bud development stage, apple branches C2 ([3]; T6 (56 d))",also measured
"CC(C)C(=O)NC#N.[Na] [Example A-7, Sodium isobutyryl cyanamide]",0,0,0,2,5,5,127 to 133 °C,2,3,4,5,5,5,dormancy-breaking effect,0,0,1,1,5,5,"Dormancy-breaking effect according to the definition, wine C4 [1, 6]: dormancy-breaking effect; Good to very good dormancy-breaking effect, apple C1 [2]: good to very good dormancy-breaking effect; Dormancy-breaking effect according to the definition, apple C2 [3, 6]: dormancy-breaking effect; Bud development stage, cherry branches C3 [4, 5]: 0; Bud development stage, cherry branches C3 ([4]; T2 (16 d)): 0; Bud development stage, cherry branches C3 ([4]; T3 (21 d)): 1; Bud development stage, cherry branches C3 ([4]; T4 (27 d)): 2; Bud development stage, cherry branches C3 ([4]; T5 (36 d)): 4; Bud development stage, cherry branches C3 ([4]; T6 (56 d)): 5"
"Cc1ccc(C(=O)NC#N)cc1.[Na] [Example A-13, Sodium-4-methyl-benzoyl-cyanamide]",0,0,0,1,3,5,340 °C (dec.),0,0,0,1,4,4,dormancy-breaking effect,0,0,1,3,3,5,"Bud development stage, cherry branches C3 [4, 5]: 0; Bud development stage, cherry branches C3 ([4]; T2 (16 d)): 0; Bud development stage, cherry branches C3 ([4]; T3 (21 d)): 0; Bud development stage, cherry branches C3 ([4]; T4 (27 d)): 1; Bud development stage, cherry branches C3 ([4]; T5 (36 d)): 2; Bud development stage, cherry branches C3 ([4]; T6 (56 d)): 5"
"CCC(=O)NC#N.[Na] [Example A-5, Sodium propionyl cyanamide]",0,0,0,1,3,5,143 °C (dec.),2,2,4,5,5,5,dormancy-breaking effect,0,0,0,1,3,4,"Good to very good dormancy-breaking effect, apple C1 [2]: good to very good dormancy-breaking effect; Bud development stage, cherry branches C3 [4, 5]: 1; Bud development stage, cherry branches C3 ([4]; T2 (16 d)): 2; Bud development stage, cherry branches C3 ([4]; T3 (21 d)): 4; Bud development stage, cherry branches C3 ([4]; T4 (27 d)): 4; Bud development stage, cherry branches C3 ([4]; T5 (36 d)): 4; Bud development stage, cherry branches C3 ([4]; T6 (56 d)): 5; Good to very good dormancy-breaking effect, cherry C3 ([4]; stage 4 reached or exceeded after 21 days vs negative control): good to very good dormancy-breaking effect; Dormancy-breaking effect according to the definition, cherry C3 ([4]; stage 4 reached or exceeded after 27 days vs negative control): dormancy-breaking effect"
